Values of other authors in article PMC7904743, “WIDOCK: a reactive docking protocol for virtual screening of covalent inhibitors” (Journal of Computer-Aided Molecular Design, 2021).
Read-outs that look alike come from different tables or passages of the source.

Legend:
[1] = thiol reactivity, cited from earlier work
[2] = system: NUDT7; conditions: protein labeling at 200 μM; experimental actives if % labeling higher than 50%; cited from earlier work
[3] = system: OTUB2; conditions: OTUB2 protein labeling; experimental actives if % labeling higher than 50%; cited from earlier work
[4] = natural log of average kinetic rate constant
[5] = natural log of average rate constant

| Compound | ln(avg k) [1, 4] | ln(avg k) [1, 5] | NUDT7 % labeling [2] | OTUB2 % labeling [3] |
| --- | --- | --- | --- | --- |
| CC1CN(c2ccc(NC(=O)CCl)cc2)CC(C)O1 (centres unmarked) [PCM-0102750, CC1CN(c2ccc(NC(=O)CCl)cc2)CC(C)O1] | -15.710 | -15.710 | 0% | 24% |
| O=C(CCl)N1CCCCCC1 [PCM-0102751, O=C(CCl)N1CCCCCC1] | -16.327 | -16.327 | 0% | 0% |
| O=C(CCl)NC(=O)NCc1cccs1 [PCM-0102753, O=C(CCl)NC(=O)NCc1cccs1] | -15.984 | -15.984 | 0% | 23% |
| CC(NC(=O)CCl)C(=O)N(C)C (centres unmarked) [PCM-0102754, CC(NC(=O)CCl)C(=O)N(C)C] | -16.933 | -16.933 | 0% | 0% |
| O=C(CCl)N(c1ccccc1)C1CCS(=O)(=O)C1 (centres unmarked) [PCM-0102755, O=C(CCl)N(c1ccccc1)C1CCS(=O)(=O)C1] | -15.253 | -15.253 | 17% | 0% |
| CN(CC1COc2ccccc2O1)C(=O)CCl (centres unmarked) [PCM-0102756, CN(CC1COc2ccccc2O1)C(=O)CCl] | -15.581 | -15.581 | 16% | 6% |
| NC(=O)c1ccccc1NC(=O)CCl [PCM-0102758, NC(=O)c1ccccc1NC(=O)CCl] | -15.095 | -15.095 | 0% | 0% |
| Cc1ccc(S(=O)(=O)N2CCN(C(=O)CCl)CC2)cc1 [PCM-0102759, Cc1ccc(S(=O)(=O)N2CCN(C(=O)CCl)CC2)cc1] | -15.424 | -15.424 | 12% | 0% |
| O=C(CCl)N(C1CCCCC1)C1CCS(=O)(=O)C1 (centres unmarked) [PCM-0102760, O=C(CCl)N(C1CCCCC1)C1CCS(=O)(=O)C1] | -15.274 | -15.274 | 8% | 0% |
| O=C(CCl)Nc1cc(Cl)ccc1F [PCM-0102762, O=C(CCl)Nc1cc(Cl)ccc1F] | -15.818 | -15.818 | 0% | 13% |
| COc1ccc(Cl)cc1C(=O)NNC(=O)CCl [PCM-0102763, COc1ccc(Cl)cc1C(=O)NNC(=O)CCl] | -16.746 | -16.746 | 10% | 64% |
| COC(=O)c1ccc(Cl)c(NC(=O)CCl)c1 [PCM-0102764, COC(=O)c1ccc(Cl)c(NC(=O)CCl)c1] | -16.022 | -16.022 | 7% | 29% |
| CSc1ccc(NC(=O)CCl)cc1 [PCM-0102772, CSc1ccc(NC(=O)CCl)cc1] | -15.893 | -15.893 | 13% | 28% |
| CC(C)(C)C(NC(=O)CCl)c1cccs1 (centres unmarked) [PCM-0102773, CC(C)(C)C(NC(=O)CCl)c1cccs1] | -16.457 | -16.457 | 9% | 0% |
| Cc1ccc(-c2nnc(C)[nH]2)c(NC(=O)CCl)c1 [PCM-0102775, Cc1ccc(-c2nnc(C)[nH]2)c(NC(=O)CCl)c1] | -16.632 | -16.632 | 13% | 0% |
| O=C(CCl)NNC(=O)C1CC1 [PCM-0102776, O=C(CCl)NNC(=O)C1CC1] | -17.370 | -17.370 | 0% | 23% |
| Cc1noc(C)c1CNC(=O)CCl [PCM-0102780, Cc1noc(C)c1CNC(=O)CCl] | -16.766 | -16.766 | 11% | 0% |
